Test results: patent US20130330244A1, “COMPOSITIONS AND METHODS FOR TOPICAL NITRIC OXIDE GENERATION” (NIOXX LLC, priority 2011, published 2013)

How the values were obtained:
[1] = Preservation of color and viscosity of the composition over time; assay type: physicochemical; details: used instead of ascorbic acid in the gel
Experimental: Gels were prepared according to the mixing procedure of Example 1, but with amounts of the ingredients to achieve molarities of those ingredients as shown below. Euxyl® PE9010 is a preservative having phenoxyethanol as the active ingredient (Schülke and Mayr, 30 Two Bridges Road Suite 225, Fairfield, N.J. 07004, USA).

[2] = cited from earlier work

Row | SMILES | color and viscosity stability of composition [1] | pKa [2]
1 | CCOC1=C(O)C(=O)O[C@@H]1[C@@H](O)CO [3-O-ethyl ascorbic acid] | preserves the color and viscosity of the composition over long periods of time | –
2 | O=NO [Nitrous acid] | – | 3.37
